These results are taken from article PMC10683023, “Targeting Glial Cells by Organic Anion-Transporting Polypeptide 1C1 (OATP1C1)-Utilizing L-Thyroxine-Derived Prodrugs” (Journal of Medicinal Chemistry, 2023).

One assay concerns mouse primary astrocytes. The assay is described as follows: Concentration-dependent cellular uptake into mouse primary astrocytes. The format is cell-based. Conditions: 5–400 μM, 30 min, 37 °C. The procedure: The mouse primary astrocytes were isolated from neonatal pups (P0-2) of wild-type mice (C57BL/6JOlaHsd) as previously described, in compliance with the European Commission Directive 2010/63/EU and approved by the Institutional Animal Care and Use Committee of the University of Eastern Finland (Animal Usage Plan numbers: EKS-006-2019).[37] Neonatal pups were decapitated, and their brains were collected in an ice-cold HBSS buffer. After tissue dissociation and washing, cells were plated on poly-L-lysine-coated flasks and cultured in DMEM supplemented with FBS, L-glutamine, and penicillin/streptomycin (50 μg/mL) for 24 h. Debris and dead cells were removed by DPBS rinsing. After 7 days, microglial cells were removed, and the remaining astrocytic monolayer was collected by trypsinization using 0.05% trypsin-ethylenediaminetetraacetic acid (EDTA) (Gibco), pelleted, and stored at −80 °C for subsequent analysis. For the cell uptake experiments, the astrocytes were seeded on 24-well plates with a density of 10^4 cells/well 3 days before the experiments.
After removal of the culture medium, U-87MG human glioma cells and mouse primary astrocytes were carefully washed with prewarmed Hank’s balanced salt solution (HBSS) containing 125.0 mM NaCl (or choline chloride in Na^+ free conditions), 4.8 mM KCl, 1.2 mM MgSO4, 1.2 mM KH2PO4, 1.3 mM CaCl2, 5.6 mM glucose, and 25.0 mM 4-(2-hydroxyethyl)piperazine-1-ethanesulfonic acid (HEPES) with the pH adjusted to either 7.4 or pH 8.5 with 1 M NaOH (or KOH in sodium-free conditions). In the experiments at lower pH (4.5–6.5), 25.0 mM HEPES was replaced by 2-(N-morpholino) ethanesulfonic acid (MES), and the pH was adjusted to 4.5, 5.5, and 6.5 by 1.0 M NaOH. Preincubation was done with 500 μL of prewarmed HBSS at 37 °C for 10 min before adding the substrate for the uptake experiments. The functionality of OATP1C1 in human glioma U-87MG cells was studied with a known substrate (L-thyroxine, T4) and of oatp1a4, 1a5, and 1a6 in mouse primary astrocytes with [6,7-^3H(N)]-estrone-3-sulfate (ES) by incubating the uptake solution (250 μL in HBSS) consisting of 5–400 μM of the substrate at 37 °C for 30 min. After incubation, the uptake was stopped by adding 500 μL of ice-cold HBSS, and the cells were washed two times with ice-cold HBSS (2 × 500 μL). The cells were then lysed with 500 μL of 0.1 M NaOH (60 min), the lysate was neutralized, and the protein was precipitated with acidic acetonitrile (ACN with 4.8% formic acid). The supernatants were analyzed by the high-performance liquid chromatography (HPLC) methods described below (T4) or by using a liquid scintillation counter (MicroBeta2 counter, PerkinElmer, Waltham, MA) (ES). The concentrations of T4 and ES were calculated from the spiked standard curve and normalized with the protein concentrations. The protein concentrations on each plate were determined as a mean of three samples by Bio-Rad Protein Assay, based on the Bradford dye-binding method, using bovine serum albumin (BSA) as a standard protein and measuring the absorbance (595 nm) by a multiplate reader (EnVision, PerkinElmer, Inc., Waltham, MA). The OATP-mediated uptake was confirmed by changing the pH of the uptake buffer in the absence of sodium ions, and in the case of OATP1C1 in human U-87MG cells, the uptake of T4 (100 μM) was studied in the presence of competing OATP1C1-ligands, diclofenac and flufenamic acid (100 μM), and in the case of oatp1a4/1a5/1a6 in mouse primary astrocytes, the uptake of ES (100 μM) was studied in the presence of competing OATO1A2-ligand, naringin (100 μM).
Cellular uptake of prodrugs 1–8 was studied as described for L-thyroxine above by adding compounds at a concentration of 5–400 μM in prewarmed HBSS buffer (250 μL) on the cell layer and incubating at 37 °C for 30 min (uptake was linear with all compounds up to 30 min). Subsequently, the cells were washed three times with ice-cold HBSS and lysed with 500 μL of 0.1 M NaOH (60 min). […]
Broadly, the Km is the substrate concentration at which the rate is half of its maximum. Regarding `CC(C(=O)Oc1c(I)cc(C[C@H](N)C(=O)O)cc1I)c1ccc(-c2ccccc2)c(F)c1` (mixture of isomers) [Prodrug 7, (2S)-2-Amino-3-(4-((2-(2-fluoro-[1,1′-biphenyl]-4-yl)propanoyl)oxy)-3,5-diiodophenyl)propanoic acid], the Michaelis constant (Km) came to 360 ± 61 µM and the “Vmax, cellular uptake, astrocytes” value came to 10.3 ± 1.1 nmol/min/mg.

For the compound `N[C@@H](Cc1cc(I)c(OC(=O)c2ccccc2O)c(I)c1)C(=O)O` [Prodrug 3, (S)-2-Amino-3-(4-((2-hydroxybenzoyl)oxy)-3,5-diiodophenyl)propanoic acid], the Km was found to be 685 ± 97 µM and the “Vmax, cellular uptake, astrocytes” value turned out to be 13.0 ± 1.3 nmol/min/mg.

With `CC(C(=O)Oc1c(I)cc(Oc2c(I)cc(C[C@H](N)C(=O)O)cc2I)cc1I)c1ccc(-c2ccccc2)c(F)c1` (mixture of isomers) [Prodrug 8, (2S)-2-Amino-3-(4-(4-((2-(2-fluoro-[1,1′-biphenyl]-4-yl)propanoyl)oxy)-3,5-diiodophenoxy)-3,5-diiodophenyl)propanoic acid], the Km stood at 58 ± 20 µM and the “Vmax, cellular uptake, astrocytes” value is 3.0 ± 0.4 nmol/min/mg.

In the case of `CC(C(=O)Oc1c(I)cc(Oc2c(I)cc(C[C@H](N)C(=O)O)cc2I)cc1I)c1cccc(C(=O)c2ccccc2)c1` (mixture of isomers) [Prodrug 2, (2S)-2-Amino-3-(4-(4-((2-(3-benzoylphenyl)propanoyl)oxy)-3,5-diiodophenoxy)-3,5-diiodophenyl)propanoic acid], the Km is 123 ± 21 µM and the “Vmax, cellular uptake, astrocytes” value was found to be 5.5 ± 0.4 nmol/min/mg.

In the case of `N[C@@H](Cc1cc(I)c(Oc2cc(I)c(OC(=O)c3ccccc3O)c(I)c2)c(I)c1)C(=O)O` [Prodrug 4, (S)-2-Amino-3-(4-(4-((2-hydroxybenzoyl)oxy)-3,5-diiodophenoxy)-3,5-diiodophenyl)propanoic acid], the Km was found to be 86 ± 32 µM and the “Vmax, cellular uptake, astrocytes” value came to 5.5 ± 0.8 nmol/min/mg.

The next assay has as its system oatp1a4/1a5/1a6. The assay is described as follows: Competitive uptake into mouse primary astrocytes in the presence of OATP1A2 inhibitor naringin. The class given is cell-based. Conditions: 100 μM prodrug, 100 μM NRG, result in words. The procedure:
The competitive uptake in the presence of OATP-inhibitors or competing substrates (100 μM), diclofenac (DFC) and flufenamic acid (FFA), for OATP1C1 and naringin (NRG) for OATP1A2 was carried out as described above with HBSS buffer at pH 7.4 containing 100 μM of the studied compound. The cells were preincubated with the inhibitors for 10 min, and the incubation mixture was removed before adding the studied compound and the inhibitor to the cells. The competitive uptake (30 min) with the inhibitor was then carried out as the normal uptake described above. The concentrations of the studied compounds were analyzed by the HPLC methods described below, calculated from the spiked standard curve, and normalized with the protein concentrations.
The amount of prodrug 1–8 was determined by the HPLC system, which consisted of an Agilent 1100 binary pump (Agilent Technologies Inc., Wilmington, DE), an 1100 micro vacuum degasser, an HP 1050 Autosampler, and an HP 1050 variable wavelength detector, operated at 230–240 nm. The chromatographic separations were achieved on an Agilent Zorbax SB-C18 analytical column (4.4 mm × 150 mm, 5 μm) (Agilent Technologies Inc., Wilmington, DE) by using isocratic elution of water containing 0.1% formic acid (pH ca. 3.0) and acetonitrile containing 0.1% formic acid with ratios of 50:50, 30:70, 40:60, 50:50, 50:50, 40:60, 40:60, and 30:70 (v/v), respectively, for prodrug 1–8. […] The lower limit of quantification for prodrugs 1–8 was 0.20 μM. These HPLC methods were also accurate, precise, and selective over the range of 0.5–20 μM.
Turning to `CC(C(=O)Oc1c(I)cc(Oc2c(I)cc(C[C@H](N)C(=O)O)cc2I)cc1I)c1cccc(C(=O)c2ccccc2)c1` (mixture of isomers) [Prodrug 2, (2S)-2-Amino-3-(4-(4-((2-(3-benzoylphenyl)propanoyl)oxy)-3,5-diiodophenoxy)-3,5-diiodophenyl)propanoic acid], the “Cellular uptake in the presence of OATP1A2 inhibitor naringin (NRG)” value is listed as “greatest decrease”.

With `COc1ccc2cc([C@H](C)C(=O)Oc3c(I)cc(C[C@H](N)C(=O)O)cc3I)ccc2c1` [Prodrug 5, (S)-2-Amino-3-(3,5-diiodo-4-(((S)-2-(6-methoxynaphthalen-2-yl)propanoyl)oxy)phenyl)propanoic acid], the “Cellular uptake in the presence of OATP1A2 inhibitor naringin (NRG)” value is reported as “increased”.

`COc1ccc2cc([C@H](C)C(=O)Oc3c(I)cc(Oc4c(I)cc(C[C@H](N)C(=O)O)cc4I)cc3I)ccc2c1` [Prodrug 6, (S)-2-Amino-3-(4-(3,5-diiodo-4-(((S)-2-(6-methoxynaphthalen-2-yl)propanoyl)oxy)phenoxy)-3,5-diiodophenyl)propanoic acid]: the “Cellular uptake in the presence of OATP1A2 inhibitor naringin (NRG)” value is listed as “increased”.
